# Like-named read-outs stand apart in the source and are kept apart here.
# Assays:
# [1] = tested on: carrageenan induced rat paw edema; experiment: carrageenan-induced rat paw edema bioassay; assay type: in vivo; details: % inhibition of carrageenan induced rat paw edema, intraperitoneal; for Anti-inflammatory activity, 0.5 h (%): 0.5 h after treatment; for Anti-inflammatory activity, 1 h (%): 1 h after treatment; for Anti-inflammatory activity, 2 h (%): 2 h after treatment; for Anti-inflammatory activity, 3 h (%): 3 h after treatment
# Experimental: Male albino rats weighing 300 g where purchased from the Department of Zoology and Environmental Biology, University of Nigeria, Nsukka and kept at room temperature in a light controlled animal house. They were fasted with free access to water at least 12 h prior to the experiments. […] The positive control received celecoxib while the negative control received only the vehicle. Edema was produced by injecting 0.2 mL of a solution of 1% carrageenan in the hind paw. The rats were injected intraperitoneally with 1 mL suspension in 0.5% methylcellulose of the tested compounds and reference drug. Paw volume was measured by water displacement with a plethysmometer (UGO BASILE) before, 30 min, 1 h, 2 h and 3 h after treatment. The percentage was calculated by the following equation [25].
# Anti-inflammatory activity (%) = (1-D/C)[…], where D represents the difference in paw volume before and after drug administration to the rats and C represents the difference of volume in the control groups. The approval for the use of animal was obtained from the University of Nigeria committee on experimental animal use. No sign of death was observed during the experiment.
# [2] = Determination of LD50 in mice; details: mouse, in vivo, ip; male mice, intraperitoneal, observation 72 h
# Experimental: Male mice were divided into various groups and test compounds were administered in various doses intraperitoneally. […] All behavioral changes and deaths during the observation periods were recorded. The percentage of death at each dose level was then calculated, converted to probits and the LD50 (μM/kg) values were calculated. To observe the health status of the mice, they were monitored 4 times a day. […] For the purpose of ameliorating the suffering of the dying mice, CO2 euthanasia was applied. All the dead mice were disposed in bio-safety containers in accordance with local standard protocols. The mortality rate in each group was calculated according to the formula: Mortality rate(%)=(the number of dead mice/the number of mice in the group)×100.
# COX-1 = molecular target: T1, COX-1 (Ovis aries, UniProt P05979); experiment: In vitro cyclooxygenase inhibitory assay (Cayman colorimetric COX (ovine) inhibitor screening kit), COX-1; assay type: biochemical; details: read-out: COX-1 (%) inhibition
# T1 construct: purchased Cayman chemicals, USA
# T1 sequence (P05979 25-600): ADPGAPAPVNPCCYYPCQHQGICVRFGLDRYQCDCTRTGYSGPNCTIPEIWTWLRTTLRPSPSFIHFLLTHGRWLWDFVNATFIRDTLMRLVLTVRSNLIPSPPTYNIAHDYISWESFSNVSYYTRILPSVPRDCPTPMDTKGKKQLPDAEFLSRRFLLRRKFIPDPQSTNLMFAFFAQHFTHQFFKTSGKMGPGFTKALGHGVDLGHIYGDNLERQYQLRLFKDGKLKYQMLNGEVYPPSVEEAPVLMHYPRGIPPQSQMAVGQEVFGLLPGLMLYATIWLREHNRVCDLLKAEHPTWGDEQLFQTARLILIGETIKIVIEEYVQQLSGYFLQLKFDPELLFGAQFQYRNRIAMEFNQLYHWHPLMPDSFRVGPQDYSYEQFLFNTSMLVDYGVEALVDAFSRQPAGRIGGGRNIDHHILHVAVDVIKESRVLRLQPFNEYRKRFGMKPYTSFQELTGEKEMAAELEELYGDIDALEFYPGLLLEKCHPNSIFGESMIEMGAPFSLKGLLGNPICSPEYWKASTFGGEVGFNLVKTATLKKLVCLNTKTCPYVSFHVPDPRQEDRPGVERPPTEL
# Experimental: (§1) The calculations were performed as per the kit guidelines.
# COX-2 = molecular target: T2, COX-2 (Ovis aries, UniProt P79208); experiment: In vitro cyclooxygenase inhibitory assay (Cayman colorimetric COX (ovine) inhibitor screening kit), COX-2; assay type: biochemical; details: for inhibition at 2 µM: read-out: COX-2 (%) inhibition; for S I (selectivity COX-2/COX-1): ratio of % inhibition COX-2/COX-1 at 2.0 μM
# T2 construct: purchased Cayman chemicals, USA
# T2 sequence (P79208 17-603): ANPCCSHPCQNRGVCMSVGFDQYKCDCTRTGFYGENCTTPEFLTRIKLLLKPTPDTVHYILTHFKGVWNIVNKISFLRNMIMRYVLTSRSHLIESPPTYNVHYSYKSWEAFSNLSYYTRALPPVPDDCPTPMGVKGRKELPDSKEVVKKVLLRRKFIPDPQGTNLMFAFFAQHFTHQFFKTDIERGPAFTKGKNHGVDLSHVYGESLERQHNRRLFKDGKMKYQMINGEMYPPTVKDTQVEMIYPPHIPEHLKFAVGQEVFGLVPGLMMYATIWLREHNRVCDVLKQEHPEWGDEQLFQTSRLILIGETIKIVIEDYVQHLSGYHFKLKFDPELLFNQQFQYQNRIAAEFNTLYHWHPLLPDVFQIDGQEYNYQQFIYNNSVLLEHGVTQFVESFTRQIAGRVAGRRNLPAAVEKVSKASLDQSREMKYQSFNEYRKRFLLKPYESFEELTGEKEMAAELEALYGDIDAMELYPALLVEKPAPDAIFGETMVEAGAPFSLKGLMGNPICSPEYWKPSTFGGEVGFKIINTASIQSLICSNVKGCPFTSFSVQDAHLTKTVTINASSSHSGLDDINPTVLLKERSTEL
# Experimental: as §1
Compound,"Anti-inflammatory activity, 0.5 h (%) [1] [%]","Anti-inflammatory activity, 1 h (%) [1] [%]","Anti-inflammatory activity, 2 h (%) [1] [%]","Anti-inflammatory activity, 3 h (%) [1] [%]",LD50 at 72 h [2] [µmol/kg],inhibition at 2 µM (COX-1; concentration of 2.0 μM) [%],inhibition at 2 µM (COX-2; concentration of 2.0 μM) [%],S I (selectivity COX-2/COX-1) (COX-2),inhibition at 2 µM (COX-1) [%],inhibition at 2 µM (COX-2) [%]
"Cc1ccc(-c2cc(C(F)(F)F)nn2-c2ccc(S(N)(=O)=O)cc2)cc1 [Celecoxib, celecoxib, reference compound]",56.92,63.53,64.84,82.60,9.8,,,,,
"Cc1ccnc(NC(=O)CN(C(=O)c2ccccc2)S(=O)(=O)c2ccc([N+](=O)[O-])cc2)c1 [Compound 7a, N-(4-methylpyridin-2-yl)-2-[N-(4-nitrobenzenesulfonyl)-1-phenylformamido]acetamide]",24.62,18.82,14.24,11.85,12.9,14,49,3.5,,
"Cc1ccnc(NC(=O)[C@H](Cc2ccccc2)N(C(=O)c2ccccc2)S(=O)(=O)c2ccc([N+](=O)[O-])cc2)c1 [Compound 7b, (2S)-N-(4-methylpyridin-2-yl)-2-[N-(4-nitrobenzenesulfonyl)-1-phenylformamido]-3-phenyl propanamide]",32.31,17.06,17.03,12.96,14.2,8,52,6.5,,
"Cc1ccnc(NC(=O)[C@H](Cc2cc3ccccc3[nH]2)N(C(=O)c2ccccc2)S(=O)(=O)c2ccc([N+](=O)[O-])cc2)c1 [Compound 7c, (2S)-3-(1H-indol-2-yl)-N-(4-methylpyridin-2-yl)-2-[N-(4-nitrobenzenesulfonyl)-1-phenylformamido]propanamide]",49.23,62.35,75.75,88.89,8.3,,,,2,70
"Cc1ccnc(NC(=O)[C@H](CC(C)C)N(C(=O)c2ccccc2)S(=O)(=O)c2ccc([N+](=O)[O-])cc2)c1 [Compound 7d, (2S)-4-Methyl-N-(4-methylpyridin-2-yl)-2-[N-(4-nitrobenzenesulfonyl)-1-phenylformamido]pentanamide]",52.31,17.65,10.54,10.15,12.6,10,20,2.00,,
"CCC(C)[C@@H](C(=O)Nc1cc(C)ccn1)N(C(=O)c1ccccc1)S(=O)(=O)c1ccc([N+](=O)[O-])cc1 (stereo partly drawn) [Compound 7e, (2S)-3-Methyl-N-(4-methylpyridin-2-yl)-2-[N-(4-nitrobenzenesulfonyl)-1-phenylformamido]pentanamide]",26.15,25.88,19.38,16.05,13.1,4,17,4.25,,
"Cc1ccnc(NC(=O)[C@H](C(C)C)N(C(=O)c2ccccc2)S(=O)(=O)c2ccc([N+](=O)[O-])cc2)c1 [Compound 7f, (2S)-3-Methyl-N-(4-methylpyridin-2-yl)-2-[N-(4-nitrobenzenesulfonyl)-1-phenylformamido]butanamide]",24.62,17.65,14.84,1.85,15.8,15,54,3.6,,
"Cc1ccnc(NC(=O)[C@@H]2CC(O)CN2S(=O)(=O)c2ccc([N+](=O)[O-])cc2)c1 (stereo partly drawn) [Compound 7g, (2S)-4-Hydroxy-N-(4-methylpyridin-2-yl)-1-(4-nitrobenzenesulfonyl)pyrrolidine-2-carboxamide]",46.92,53.53,58.84,,9.9,,,,18,20
"Cc1ccnc(NC(=O)[C@@H]2CCCN2S(=O)(=O)c2ccc([N+](=O)[O-])cc2)c1 [Compound 7h, (2S)-N-(4-methylpyridin-2-yl)-1-(4-nitrobenzenesulfonyl)pyrrolidine-2-carboxamide]",27.69,17.06,16.59,16.05,10.7,,,,30,13
"Cc1ccc(S(=O)(=O)N(CC(=O)Nc2cc(C)ccn2)C(=O)c2ccccc2)cc1 [Compound 7i, 2-[N-(4-methylbenzenesulfonyl)-1-phenylformamido]-N-(4-methylpyridin-2-yl)acetamide]",24.62,23.53,16.78,12.47,18.2,3,18,6.00,,
"Cc1ccc(S(=O)(=O)N(C(=O)c2ccccc2)[C@@H](Cc2ccccc2)C(=O)Nc2cc(C)ccn2)cc1 [Compound 7j, (2S)-2-[N-(4-methylbenzenesulfonyl)-1-phenylformamido]-N-(4-methylpyridin-2-yl)-3-phenyl propanamide]",41.54,40.59,39.84,36.42,17.6,10,30,3.00,,
"Cc1ccc(S(=O)(=O)N(C(=O)c2ccccc2)[C@@H](Cc2cc3ccccc3[nH]2)C(=O)Nc2cc(C)ccn2)cc1 [Compound 7k, (2S)-3-(1H-indol-2-yl)-2-[N-(4-methylbenzenesulfonyl)-1-phenylformamido]-N-(4-methylpyridin-2-yl)propanamide]",42.12,56.12,70.89,,9.2,3,56,18.67,,

# Reference: article PMC5602572, “New carboxamide derivatives bearing benzenesulphonamide as a selective COX-II inhibitor: Design, synthesis and structure-activity relationship” (PLoS ONE, 2017)
